The source of these data is US20020198135A1, “Compositions for release of radiosensitizers, and methods of making and using the same” (priority 2000, published 2002).

In assay [1] the test system is human cancer cell line JHU 012. Kind of assay: JHU 012 human cancer cell line tumor in the anterior floor of the mouth of nude mice, intratumoral injection. The class given is in vivo, immunocompromised (nude) mice. Conditions: intratumoral injection ten days after cell injection, same radiation treatment (as appropriate); measured at approximately twenty days after injection. The protocol: In another in vivo experiment, 1×10^7 cells from the human cancer cell line JHU 012 were injected into the anterior floor of the mouth of immunocompromised (nude) mice. Ten days following injection, animals were anesthetized, tumors measured, intumoral injections of the same compositions identified above were completed followed by the same radiation treatment (as appropriate). At approximately twenty days after injection, animals sacrificed and tumors measured. The following approximate tumor sizes (mm^3) were observed: no treatment, 750; radiation alone, 300; empty microspheres, 500; 47% IUdR microspheres (1.175 mg IUdR in injection volume of 50 ul), 425; empty rods, 250; 33% IUdR rods, 350; and direct intrumoral injection of IUdR (0.065 mg to 0.12 mg in injection volume of 50 ul), 100.

The next assay relates to U251 xenograft. Briefly: U251 xenograft model, IUdR polymer paste with continuous ULDR and fractionated HDR. Type of assay: in vivo, mice. Conditions: IUdR via 16.7% P(trans-CHDM/HOP) paste, ULDR 0.03 Gy/hr for 72 hr, FIG. 25. The method, then:
To test the effect of protracted exposure sensitization, a 137-Cs source was mounted a fixed distance above the cages of animals bearing xenografts for whole body continuous ULDR (as defined below). […] For purposes of this experiment, ULDR=0.03 Gy/hr for 72 hr started 24 hours after xenograft transplantation, and HDR=2 Gy twice a day for 4 days, started immediately after ULDR, which is 4 days after implantation.

Molecules are shown by their SMILES.

In turn, `O=c1[nH]c(=O)n([C@H]2C[C@H](O)[C@@H](CO)O2)cc1I` [IUdR, 5-iododeoxyuridine] came in with an approximate tumor size in assay [1] of roughly 100 mm^3. In the assay on U251 xenograft, the “xenograft growth delay, combination of IUdR and ULDR compared with ULDR plus HDR” value is “more potent than the combination of IUdR and ULDR”. For the same compound, the “xenograft growth, combination of IUdR, ULDR and HDR” value in the assay on U251 xenograft (HDR 2 Gy twice a day for 4 days) was “tumor regression”.
